Results on one molecule are retold here after patent publication US10543166B2, “Implantable drug delivery devices and methods of making the same” (TARIS Biomedical LLC, priority 2009, dated 2020).

Data set [1] in a line: In vitro drug release by diffusion through the wall of silicone tube devices. The settings on record: silicone tube ID about 0.060 in, OD 0.076 in, length about 3 cm; solid tablets, payload about 60 mg; no aperture; in vitro in water at about 37° C. It counts as physicochemical. On the procedure:
A study was performed to determine the feasibility of delivering drug through the wall of a drug reservoir via diffusion. Devices were formed form silicone tubes having an inner diameter of about 0.060 inches, an outer diameter of 0.076 inches, and a length of about 3 cm. The devices were loaded with solid drug tablets of lidocaine, for a total payload of about 60 mg. Some of the devices included an aperture formed through the tube wall, the aperture having a diameter of 150 μm. These devices were loaded with solid tablets of either lidocaine hydrochloride monohydrate or a combination of lidocaine hydrochloride monohydrate and lidocaine base. […] The devices were tested in vitro in water at about 37° C.

Data set [2] can be described thus: In vitro drug release through both the wall and apertures of silicone tube devices. It counts as physicochemical. The settings on record: in vitro in water at about 37° C. How it is done: Another study was performed to investigate the feasibility of delivering drug from a device through both a wall of a drug reservoir and from an aperture in the wall of the drug reservoir. Devices were formed form silicone tubes having a length of about 3 cm. The devices were loaded with solid drug tablets of lidocaine base, for a total payload of about 60 mg. […] The devices were tested in vitro in water at about 37° C.

On to `CCN(CC)CC(=O)Nc1c(C)cccc1C` [lidocaine base], for which, in data set [1], the “delivery of drug via diffusion through a silicone wall without an aperture” value is reported as “feasible to deliver drug via diffusion through a silicone wall without an aperture”. Also, the “effect of apertures on release rate” value in data set [2] (devices with 0, 1 (150 μm), 2, 30 or 60 (360 μm) apertures) is “release rate can be increased by adding apertures to the device”. The “release from a silicone tube without any apertures” value in data set [2] (silicone tubes about 3 cm, solid tablets, payload about 60 mg) is “can be released from a silicone tube without any apertures”.
